Measured values as given in patent publication US6448246B1 (dated 2002).

melting point: 160 to 162 °C
Compound: O=C(NCc1ccccc1)C1C=Nc2ccccc2S1 (stereo not shown)
